The test system of this test is Eimeria strains according to the invention. Kind of test: Tolerance/sensitivity of the strains to anticoccidial drugs (infection of chickens with the strains and administration of drug). It is filed as in vivo. The method, then: all four strains are tolerant to two commonly used anticoccidial ionophores: monensin (110 ppm) and salinomycin (60 ppm). The concentrations tested are commonly used concentrations. Specific tolerance levels were determined by infection of chickens with the strains and administration of ionophores.
These four strains are tolerant for 110 ppm of monensin and for 60 ppm of salinomycin, sensitive for 1 ppm of diclazuril (see FIG. 1) and the proliferative capacity of the four strains is decreased to 76000 (see Table 1b).

Each structure is given as a SMILES string.

Turning to `CC[C@@H](C(=O)[C@@H](C)[C@@H](O)[C@H](C)[C@@H]1O[C@@H]([C@@H](CC)C(=O)O)CC[C@@H]1C)[C@H]1O[C@]2(C=C[C@@H](O)[C@]3(CC[C@@](C)([C@H]4CC[C@](O)(CC)[C@H](C)O4)O3)O2)[C@H](C)C[C@@H]1C` [salinomycin], the “tolerance of the strains to salinomycin” value (salinomycin 60 ppm, chickens infected with the strains) is reported as “tolerant”.

On to `N#CC(c1ccc(Cl)cc1)c1c(Cl)cc(-n2ncc(=O)[nH]c2=O)cc1Cl` (stereo not drawn) [diclazuril], for which, for the setting “diclazuril 1 ppm”, the “sensitivity of the strains to diclazuril” value is “fully sensitive”.

`CC[C@@]1([C@@H]2O[C@@H]([C@H]3O[C@@](O)(CO)[C@H](C)C[C@@H]3C)C[C@@H]2C)CC[C@H]([C@]2(C)CC[C@]3(C[C@H](O)[C@@H](C)[C@@H]([C@@H](C)[C@@H](OC)[C@H](C)C(=O)O)O3)O2)O1` [monensin]: the “tolerance of the strains to monensin” value (monensin 110 ppm, chickens infected with the strains) is on record as “tolerant”.

The values are drawn from patent publication US7247309B2, “Coccidiosis vaccines” (Intervet International B.V., priority 1999, dated 2007).
